Assay results reported in patent US20080057086A1, “COLON-TARGETED ORAL FORMULATIONS OF CYTIDINE ANALOGS” (PHARMION CORPORATION, priority 2006, published 2008).
Like-named read-outs stand apart in the source and are kept apart here.

Tests used:
[1] = test system: leukemic mice; settings: cited from earlier work
[2] = test system: human intestinal tissue (jejunum, ileum, colon); experiment: Permeability in viable human intestinal strips (USSING chambers), mucosal to serosal; type: in vitro ADME
Excerpt: (§1) This model allows evaluation of the absorption potential of drugs and differences in drug absorption across the human jejunum, ileum, and colon and is based on Ungell et al. “Membrane Transport of Drugs in Different Regions of the Intestinal Tract of the Rat”, J. Pharm. Sci. 87:360-366, (1998) and Nejdfors et al. “Mucosal in vitro Permeability in the Intestinal Tract of the Pig, the Rat, and Man: Species and Region Related Differences”, Scand. J. Gastroenterol. 35:501-507, (2000). Permeation experiments were performed for 5-azacytidine in the jejunal, ileal, and colonic tissues originating from the same human donor. Post-mortem human whole intestine was obtained from the International Institute for the Advancement of Medicine (IIAM). Tissues were used within 24 hours of the organ's removal. Tissues were maintained in cold transport media before being stripped. The segments were cut along the mesenteric border, the underlying musculature was stripped off, and the epithelium was rinsed with ice cold normal saline. The stripped tissues were mounted within the vertical USSING chambers (Harvard Apparatus, Holliston, Mass.). In these studies, 5-azacytidine permeability was measured in both absolute rate and relative to atenolol (internal control). In all cases the net apparent permeability was assessed in the mucosal to serosal direction only.

[3] = Caco 2 monolayer permeability of 5-azacytidine with and without excipients; type: in vitro ADME; settings: human
Description: The Caco-2 cells are an intestinal epithelial cell line (human colon adenocarcinoma established from the primary colon tumor (adenocarcinoma)) Monolayers of Caco-2 cells are used to classify the intestinal absorption potential of a drug candidate molecule. The assay was carried out in accordance with P. Artursson and J. Karlsson, “Correlation between Oral Drug Absorption in Humans and Apparent Drug Permeability Coefficients in Human Intestinal Epithelial (Caco-2) Cells”, Biochem. Biophys. Res. Commun. 175, 880 (1991).
Briefly, Caco-2 cells were grown to confluence on collagen-coated, microporous polycarbonate in 12-well plates. For the assay buffer, Dulbecco's Phosphate Buffered Saline at pH 7.4 was used. […] The test compound was then dosed on either the apical or basolateral side of the Caco-2 monolayer, and flux across the monolayer was determined both one and two hours after dosing. Results were compared to control high permeability compounds metoprolol and antipyrine and low permeability compounds atenolol and ranitidine, and were expressed as Papp (apparent permeability) compared to reference compound standards. Integrity of the monolayers was determine both before and after testing by measuring the […] electrical resistance (TEER) value. Apparent permeability is calculated as (dCr/dt)×Vr/(A×C0) where dCr/dt is the slope of the cumulative concentration in the receiver compartment versus time in micromolar per second, Vr is the volume of the receiver compartment in cubic centimeters, A is the area of the cell monolayer, and C0 is the measured initial donor concentration in micromolar.

[4] = test system: fetal hemoglobin production; settings: baboons; IV, SC or PO route; PO needed co-administration of THU; 0.25 to 8 mg/kg/d with 20 mg/kg/d THU; cited from earlier work
[5] = test system: human colonic tissue; experiment: Permeation enhancement in human colonic strips; type: in vitro ADME; settings: without enzymatic inhibition (FIGS. 3, 4)
Excerpt: as §1

[6] = Excipient compatibility studies; type: physicochemical
[7] = test system: total hemoglobin; settings: β^0-thalassemic patient, cited from earlier work
[8] = test system: total hemoglobin, fetal hemoglobin and F cells; settings: sickle cell patients, cited from earlier work
[9] = PO administration with THU versus without, bioassay

Papp at 1000 micromolar ([3]; Caco-2, pH 7.4, with Carboxymethyl Cellulose 0.1%): 0.26 ± 0.09 ×10⁻⁶ cm/s | Papp at 1000 micromolar ([3]; Caco-2, pH 7.4, with Chitosan 0.1%): 0.15 ± 0.01 ×10⁻⁶ cm/s | Papp at 1000 micromolar ([3]; Caco-2, pH 7.4, with Labrafil 0.001%): 0.27 ± 0.02 ×10⁻⁶ cm/s | Papp at 1000 micromolar ([3]; Caco-2, pH 7.4, with Labrafil 0.01%): 0.23 ± 0.04 ×10⁻⁶ cm/s | Papp at 1000 micromolar ([3]; Caco-2, pH 7.4, with Labrafil 0.05%): 0.38 ± 0.13 ×10⁻⁶ cm/s | Papp at 1000 micromolar ([3]; Caco-2, pH 7.4, with Labrafil 0.1%): 0.34 ± 0.002 ×10⁻⁶ cm/s | Papp at 1000 micromolar ([3]; Caco-2, pH 7.4, with Poloxamer F127 0.1%): 0.13 ± 0.02 ×10⁻⁶ cm/s | Papp at 1000 micromolar ([3]; Caco-2, pH 7.4, with Sodium Laurate 0.001%): 0.19 ± 0.04 ×10⁻⁶ cm/s | Papp at 1000 micromolar ([3]; Caco-2, pH 7.4, with Sodium Laurate 0.01%): 0.19 ± 0.02 ×10⁻⁶ cm/s | Papp at 1000 micromolar ([3]; Caco-2, pH 7.4, with Sodium Laurate 0.05%): 0.17 ± 0.03 ×10⁻⁶ cm/s | Papp at 1000 micromolar ([3]; Caco-2, pH 7.4, with Solutol 0.1%): 0.26 ± 0.04 ×10⁻⁶ cm/s | Papp at 1000 micromolar ([3]; Caco-2, pH 7.4, with TPGS 0.001%): 0.33 ± 0.08 ×10⁻⁶ cm/s | Papp at 1000 micromolar ([3]; Caco-2, pH 7.4, with TPGS 0.01%): 0.3 ± 0.05 ×10⁻⁶ cm/s | Papp at 1000 micromolar ([3]; Caco-2, pH 7.4, with TPGS 0.05%): 0.45 ± 0.18 ×10⁻⁶ cm/s | Papp at 1000 micromolar ([3]; Caco-2, pH 7.4, with TPGS 0.1%): 0.38 ± 0.09 ×10⁻⁶ cm/s | Papp A→B at 1000 micromolar ([3]; Caco-2, pH 7.4, read-out: Papp (apical to basolateral permeability)): 0.15 ± 0.02 ×10⁻⁶ cm/s | Permeability with permeation enhancer ([5]; various concentrations of Labrafil): did not appear to affect | Excipient compatibility ([6]; each excipient of the Example 3 formulation (Table 2)): compatible with each excipient | Excipient compatibility ([6]; each excipient of the Example 4 formulation (Table 3)): compatible with each excipient | Excipient compatibility ([6]; each excipient of the Example 6 formulation (Table 7)): compatible with each excipient | Excipient compatibility ([6]; each excipient of the Example 7 formulation (Table 8)): compatible with each excipient | Excipient compatibility ([6]; each excipient of the Example 8 formulation (Table 9)): compatible with each excipient | Excipient compatibility ([6]; each excipient of the Example 9 formulation (Table 10)): compatible with each excipient
SMILES: Nc1ncn([C@@H]2O[C@H](CO)[C@@H](O)[C@H]2O)c(=O)n1 [5-azacytidine, 4-amino-1-β-D-ribofuranosyl-1,3,5-triazin-2(1H)-one]
Effect of THU on clearance or degradation of 5-azacytidine ([1]; IP administration with THU, bioassay): little effect | Cmax [1, 9]: significantly increased | t1/2 [1, 9]: significantly increased | Efficacy with co-administration of THU ([1]; PO with THU, all doses except the highest chronic dose which was toxic): increased efficacy | Effect of THU on pharmacodynamic effects of 5-azacytidine ([1]; acute and chronic IP dosing with THU, except at the highest chronic dose which was toxic): did not influence | Absolute mucosal to serosal permeability by intestinal region ([2]; colon relative to jejunum and ileum, multiple donors (FIG. 1)): greatest in the colon | Effect of enzymatic inhibitors on absolute permeability ([2]; with ketoconazole and THU, increase maximal in jejunum and ileum, relatively small in colon): increased the absolute permeability in all GI tract regions | Papp at 1000 micromolar ([3]; Caco-2, pH 7.4, with Sodium Laurate 0.1%, high permeability due to toxic effects of sodium laurate on Caco 2 cells): 15.8 ± 1.77 ×10⁻⁶ cm/s | Fetal hemoglobin production [4]: induce fetal hemoglobin production | Permeability with permeation enhancer ([5]; various concentrations of TPGS): trend toward greater permeability with increasing levels of TPGS | Hemoglobin levels ([7]; 2 mg/d tid PO with co-administration of THU): did not result in increased hemoglobin levels | Hemoglobin levels ([7]; 2 mg/kg/d IV): measurable increase | Clinical response, SC without THU versus PO with THU ([8]; 2 mg/kg/d SC without THU versus 0.2 mg/kg/d PO with 200 mg/d THU): comparable clinical response | Clinical response (total hemoglobin, fetal hemoglobin and F cell levels) ([8]; 5-azacytidine co-administered with THU): good clinical response | F reticulocyte production ([8]; oral 5-azacytidine 2 mg/kg/d alone): did not result in increased F reticulocyte production
